In patent US20050287594A1 (priority 2000, published 2005):
Like-named read-outs stand apart in the source and are kept apart here.

What was measured:
[1] = pH 8
cALDH-I [2] = target: T1, cALDH-I (Rattus norvegicus, UniProt P51647); format: binding
T1 construct: His tag (pTrcHis vector) (N); made in house; host or cells: E. coli BL-21
T1 sequence (P51647 1-501): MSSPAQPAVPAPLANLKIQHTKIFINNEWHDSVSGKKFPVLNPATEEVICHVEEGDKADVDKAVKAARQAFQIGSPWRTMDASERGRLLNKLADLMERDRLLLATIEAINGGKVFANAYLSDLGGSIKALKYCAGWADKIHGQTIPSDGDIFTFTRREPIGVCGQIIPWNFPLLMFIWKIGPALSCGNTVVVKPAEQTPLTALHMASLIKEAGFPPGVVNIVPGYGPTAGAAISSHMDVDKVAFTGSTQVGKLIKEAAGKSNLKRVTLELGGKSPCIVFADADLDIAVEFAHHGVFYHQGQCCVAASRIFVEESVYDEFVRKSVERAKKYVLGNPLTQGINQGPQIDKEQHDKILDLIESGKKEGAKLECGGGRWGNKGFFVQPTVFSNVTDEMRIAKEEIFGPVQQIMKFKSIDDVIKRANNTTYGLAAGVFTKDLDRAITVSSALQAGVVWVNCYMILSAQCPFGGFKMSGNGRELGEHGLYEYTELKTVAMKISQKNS

cALDH-I [3] = target: T1, cALDH-I; format: biochemical
cALDH-I [4] = target: T1, cALDH-I; conditions: read-out: Michealis constant Km, reported literature value; cited from earlier work
rat testis proteome = format: binding

CCCCCCCCOS(=O)(=O)c1ccccn1 [Sulfonate 15, 1-(2-Pyridylsulfonyl)oxo-octane]
stability in reaction buffer [1]: stable to the assay conditions employed | blocking of the labeling of cALDH-I by 1 (cALDH-I [2]): effectively blocked the labeling of cALDH-I by 1 | average Kobs/[I] (cALDH-I [3]): (9.7+1.8)×10^3 M^−min^− | cALDH-I inactivation (in words) (cALDH-I [3]): completely inactivated | effect of NAD^+ on inactivation of cALDH-I by 15 (cALDH-I [3]): completely protected the enzyme from inactivation

CCC=O [propionaldehyde, reference compound]
Km (cALDH-I [3]; read-out: Michealis constant Km): 4.2 µM | Km (cALDH-I [4]): 6.5 µM

O=C(CCCCCCCCCOS(=O)(=O)c1ccccn1)NCCCCCNC(=O)CCCC[C@@H]1SC[C@@H]2NC(=O)N[C@@H]21 [sulfonate 1, 10-((2-pyridylsulfonyl)oxo)-N-biotinamidopentyldecanamide]
specific (heat-sensitive) proteome reactivity (rat testis proteome): labeled a 55 kDa protein and a 31 kDa protein

O=C(CCCCCCCCCOS(=O)(=O)c1ccccc1)NCCCCCNC(=O)CCCCC1SCC2NC(=O)NC21 (stereo not drawn) [sulfonate 2, 10-((Benzenesulfonyl)oxo)-N-biotinamidopentyldecanamide]
specific (heat-sensitive) proteome reactivity (rat testis proteome): reacted with three of the four proteins labeled by 4 and 5

Cc1ccc(S(=O)(=O)OCCCCCCCCCC(=O)NCCCCCNC(=O)CCCCC2SCC3NC(=O)NC32)cc1 (stereo not drawn) [sulfonate 3, 10-((p-Toluenesulfonyl)oxo)-N-biotinamidopentyldecanamide]
specific (heat-sensitive) proteome reactivity (rat testis proteome): specifically labeled one 55 kDa protein

COc1ccc(S(=O)(=O)OCCCCCCCCCC(=O)NCCCCCNC(=O)CCCCC2SCC3NC(=O)NC32)cc1 (stereo not drawn) [sulfonate 4, 10-((4-Methoxybenzenesulfonyl)oxo)-N-biotinamidopentyldecanamide]
nonspecific (heat-insensitive) reactivity with the preheated proteome (rat testis proteome): showed significant additional reactivity with the preheated proteome | specific (heat-sensitive) proteome reactivity (rat testis proteome): labeled four members of the proteome in a heat-sensitive manner

CS(=O)(=O)OCCCCCCCCCC(=O)NCCCCCNC(=O)CCCCC1SCC2NC(=O)NC21 (stereo not drawn) [sulfonate 5, 10-((Methylsulfonyl)oxo)-N-biotinamidopentyldecanamide]
nonspecific (heat-insensitive) reactivity with the preheated proteome (rat testis proteome): showed significant additional reactivity with the preheated proteome | specific (heat-sensitive) proteome reactivity (rat testis proteome): labeled four members of the proteome in a heat-sensitive manner

CCCCS(=O)(=O)OCCCCCCCCCC(=O)NCCCCCNC(=O)CCCCC1SCC2NC(=O)NC21 (stereo not drawn) [sulfonate 6, 10-((Butylsulfonyl)oxo)-N-biontinamidopentyldecanamide]
specific (heat-sensitive) proteome reactivity (rat testis proteome): specifically labeled one 55 kDa protein

O=C(CCCCCCCCCOS(=O)(=O)c1ccc([N+](=O)[O-])cc1)NCCCCCNC(=O)CCCCC1SCC2NC(=O)NC21 (stereo not drawn) [sulfonate 8, 10-((4-Nitrobenzenesulfonyl)oxo)-N-biotinamidopentyldecanamide]
specific (heat-sensitive) proteome reactivity (rat testis proteome): reacted specifically with a 55 kDa protein, as well as two additional proteins poorly labeled by the other reagents

O=C(CCCCCCCCCOS(=O)(=O)c1cccc2cccnc12)NCCCCCNC(=O)CCCCC1SCC2NC(=O)NC21 (stereo not drawn) [sulfonate 9, 10-((8-Quinolinesulfonyl)oxo)-N-biotinamidopentyldecanamide]
specific (heat-sensitive) proteome reactivity (rat testis proteome): reacted specifically with a 55 kDa protein, as well as two additional proteins poorly labeled by the other reagents

O=C(CCCCCCCCCOS(=O)(=O)c1ccc2ccccc2c1)NCCCCCNC(=O)CCCCC1SCC2NC(=O)NC21 (stereo not drawn) [sulfonate 10, 10-((2-Naphthalenesulfonyl)oxo)-N-biotinamidopentyldecanamide]
specific (heat-sensitive) proteome reactivity (rat testis proteome): specifically labeled one 55 kDa protein

O=C(CCCCCCCCCOS(=O)(=O)c1cccs1)NCCCCCNC(=O)CCCCC1SCC2NC(=O)NC21 (stereo not drawn) [sulfonate 11]
specific (heat-sensitive) proteome reactivity (rat testis proteome): reacted specifically with a 55 kDa protein, as well as two additional proteins poorly labeled by the other reagents

CCOS(=O)(=O)c1ccccn1 [sulfonate 16, 1-(2-Pyridylsulfonyl)oxo-ethane]
blocking of the labeling of cALDH-I by 1 (cALDH-I [2]): did not block the labeling of cALDH-I by 1 | % Activity Remaining (cALDH-I [3]): 42% | Kobs/[I] (cALDH-I [3]): 0.00417 M⁻¹ s⁻¹ | cALDH-I inactivation (in words) (cALDH-I [3]): weak | second order inhibition rate constant, times lower than that determined for 15 (cALDH-I [3]): 40000 times

CCCCCCCCOS(C)(=O)=O [sulfonate 17, 1-(Methanesulfonyl)oxo-octane]
blocking of the labeling of cALDH-I by 1 (cALDH-I [2]): did not block the labeling of cALDH-I by 1 | % Activity Remaining (cALDH-I [3]): 100% | cALDH-I inactivation (in words) (cALDH-I [3]): no inhibition
